Test results: ChEMBL document CHEMBL1125671, “Synthesis and antiviral activity of enantiomeric forms of cyclobutyl nucleoside analogues” (1991)
pIC50: −log10 of the molar value.

How the values were obtained:
Format in all cases: functional
[1] = system: Mus musculus; experiment: Mean day of death for total no. of dead mouse at 50 mg/kg/day dose
[2] = system: Mus musculus; experiment: Mean day of death for total no. of dead mouse at 12.5 mg/kg/day dose
[3] = system: Human alphaherpesvirus 1; experiment: compound was tested for antiherpes activity against HSV-1(Schooler) in tissue culture by plaque reduction assay; conditions: read-out: ID50 (the source's name)
[4] = system: Mus musculus; experiment: Subcutaneous efficacy in a mouse cytomegalovirus infection at 12.5 mg/kg/day dose; Value expressed as survivors/total tested = 5/10
[5] = system: Mus musculus; experiment: Subcutaneous efficacy in a mouse cytomegalovirus infection at 25 mg/kg/day dose; Value expressed as survivors/total tested = 9/10
[6] = system: Human betaherpesvirus 5; experiment: compound was tested for antiherpes activity against HCMV(AD 169) in tissue culture by plaque reduction assay; conditions: read-out: ID50 (the source's name)
[7] = system: Mus musculus; experiment: Subcutaneous efficacy in a mouse cytomegalovirus infection at 50 mg/kg/day; Value expressed as survivors/total tested = 9/10
[8] = system: Mus musculus; experiment: Subcutaneous efficacy in a mouse cytomegalovirus infection at 100 mg/kg/day dose; Value expressed as survivors/total tested = 10/10
[9] = system: Murid betaherpesvirus 1; experiment: compound was tested for antiherpes activity against MCMV(Smith) in tissue culture by plaque reduction assay; conditions: read-out: ID50 (the source's name)
[10] = system: Mus musculus; experiment: Mean day of death for total no. of dead mouse at 25 mg/kg/day dose
[11] = system: Mus musculus; experiment: subcutaneous efficacy of compound in a lethal MCMV infection on mouse; conditions: sc, read-out: PD50
[12] = system: Human alphaherpesvirus 3; experiment: compound was tested for antiherpes activity against VZV(Ellen) in tissue culture by plaque reduction assay; conditions: read-out: ID50 (the source's name)
[13] = system: Human alphaherpesvirus 2; experiment: compound was tested for antiherpes activity against HSV-2(186) in tissue culture by plaque reduction assay; conditions: read-out: ID50 (the source's name)
[14] = system: Mus musculus; experiment: Mean day of death for total no. of dead mouse at 6.3 mg/kg/day dose
[15] = system: Mus musculus; experiment: Subcutaneous efficacy in a mouse cytomegalovirus infection at 6.3 mg/kg/day dose; Value expressed as survivors/total tested = 4/10
[16] = system: Mus musculus; experiment: oral efficacy in a mouse cytomegalovirus infection at 12.5 mg/kg/day dose; Value expressed as survivors/total tested = 1/10
[17] = system: Mus musculus; experiment: oral efficacy in a mouse cytomegalovirus infection at 25 mg/kg/day dose; Value expressed as survivors/total tested = 3/10
[18] = system: Mus musculus; experiment: Subcutaneous efficacy in a mouse cytomegalovirus infection at 50 mg/kg/day dose; Value expressed as survivors/total tested = 10/10
[19] = system: Mus musculus; experiment: Mean day of death for total no. of dead mouse at 12.5 mg/kg/day dosep<0.05
[20] = system: Mus musculus; experiment: Subcutaneous efficacy in a mouse cytomegalovirus infection at 25 mg/kg/day dose; Value expressed as survivors/total tested = 10/10
[21] = system: Mus musculus; experiment: oral efficacy in a mouse cytomegalovirus infection at 100 mg/kg/day dose; Value expressed as survivors/total tested = 10/10
[22] = system: Mus musculus; experiment: Subcutaneous efficacy in a mouse cytomegalovirus infection at 12.5 mg/kg/day dose; Value expressed as survivors/total tested = 4/10
[23] = system: Mus musculus; experiment: oral efficacy in a mouse cytomegalovirus infection at 50 mg/kg/day dose; Value expressed as survivors/total tested = 6/10
[24] = system: Mus musculus; experiment: oral efficacy in a mouse cytomegalovirus infection at 25 mg/kg/day dose; Value expressed as survivors/total tested = 1/10
[25] = system: Mus musculus; experiment: Mean day of death for total no. of dead mouse at 25 mg/kg/day dosep<0.05
[26] = system: Mus musculus; experiment: Subcutaneous efficacy in a mouse cytomegalovirus infection at 12.5 mg/kg/day dose; Value expressed as survivors/total tested = 7/10
[27] = system: Mus musculus; experiment: oral efficacy in a mouse cytomegalovirus infection at 50 mg/kg/day dose; Value expressed as survivors/total tested = 5/10

SMILES	Mean day of death for total dead [1]	Mean day of death for total dead [2]	pIC50 [3]	pIC50 [6]	Survivors alive/total [8]	pIC50 [9]	pIC50 [12]	pIC50 [13]	also measured
Nc1nc(O)c2ncn(C3C[C@@H](CO)[C@@H]3CO)c2n1 (stereo partly specified)	6	5.4	7.70	6.10	10	6.70	7.70	7.70	Survivors alive/total [4]: 5; Survivors alive/total [5]: 9; Survivors alive/total [7]: 9; Mean day of death for total dead [10]: 4; ED50 [11]: 10 mg/kg/day
Nc1ncnc2c1ncn2C1C[C@H](CO)C1CO (stereo partly specified)			< 3.40	< 3.40			< 3.40	< 3.40	
Nc1ncnc2c1ncn2C1C[C@@H](CO)[C@@H]1CO (stereo partly specified)	6.3	3.9	5.70	> 6.40	10	6.10	5.70	5.70	Mean day of death for total dead [14]: 4.4; Survivors alive/total [15]: 4; Survivors alive/total [16]: 1; Survivors alive/total [17]: 3; Survivors alive/total [18]: 10; Mean day of death for total dead [19]: 8.8; Survivors alive/total [20]: 10; Survivors alive/total [21]: 10; Survivors alive/total [22]: 4; Survivors alive/total [23]: 6; Mean day of death for total dead [10]: 3.6
Nc1ncnc2c1ncn2C1CC(CO)C1CO (stereo unspecified)			5.10	6.10		5.70	5.70	5.10	
Nc1nc(O)c2ncn(C3CC(CO)C3CO)c2n1 (stereo unspecified)			7.10	5.40		5.70	6.70	7.40	
Nc1nc(O)c2ncn([C@H]3CC(CO)[C@@H]3CO)c2n1 (single isomer, unassigned)			< 3.42	< 3.42			< 3.42	< 3.42	
Nc1nc2c(ncn2COC(CO)CO)c(=O)[nH]1 [GANCICLOVIR]	4.4	3.6	7.40	5.70	10	5.40	5.70	7.40	Survivors alive/total [24]: 1; Mean day of death for total dead [25]: 4.8; Survivors alive/total [16]: 1; Survivors alive/total [18]: 10; Mean day of death for total dead [19]: 5.7; Survivors alive/total [20]: 10; Survivors alive/total [26]: 7; Survivors alive/total [27]: 5
